Source: PMC7862291, “Full-length in meso structure and mechanism of rat kynurenine 3-monooxygenase inhibition” (Communications Biology, 2021)
“And” between values parts separate entries of the source, which are not always exact repeats. Identical values can stand only once.

Assays:
[1] = biological target: T1, HEK293 cells stably expressing human KMO (Homo sapiens, UniProt O15229); assay: Cell-based human KMO inhibition assay (LC/MS of 3-hydroxykynurenine)
T1 construct: expressed in transfected cells
Method in brief: (§1)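 HEK293 lines stably expressing human or rat KMO, pre-incubated ~30 min at 37 °C with compound (final 0–30 μM, 0.3% DMSO) in HBSS/20 mM HEPES. Then 2 h at 37 °C with 0.2 mM kynurenine (solution concentration). 3-Hydroxykynurenine in cell extracts quantified by LC-MS/MS, positive ESI.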

hKMO = biological target: T2, hKMO (Homo sapiens, UniProt O15229); assay: Human KMO enzyme (cell-free) assay, NADPH consumption by absorbance; format: biochemical
T2 construct: purchased Origene
Method in brief: (§2)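 Recombinant human KMO or purified full-length rat KMO, pre-incubated 5 min with compound in HEPES buffer pH ~7.9 with MgCl2, EGTA, DTT, Tween20. Substrate mix of 2.4 mM kynurenine and 0.6 mM NADPH (solution concentrations) added; 90 min at 30 °C. Stopped with maleimide, then WST-9/1-methoxy-PMS colour read-out.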

Rat KMO = biological target: T3, Rat KMO (Rattus norvegicus, UniProt O88867); assay: Rat KMO enzyme (cell-free) assay, NADPH consumption by absorbance; format: biochemical
T3 construct: The GST-tagged full-length KMO (1-478) baculovirus vector contained a thrombin cleavage site; GST (thrombin cleavage site between GST and KMO) (N, cleaved yes); made in house; host or cells: Spodoptera frugiperda (Sf9), baculovirus
Method in brief: as §2

[2] = biological target: T4, HEK293 cells stably expressing rat KMO (Rattus norvegicus, UniProt O88867); assay: Cell-based rat KMO inhibition assay (LC/MS of 3-hydroxykynurenine)
T4 construct: expressed in transfected cells
Method in brief: as §1

T2 sequence (O15229 whole entry): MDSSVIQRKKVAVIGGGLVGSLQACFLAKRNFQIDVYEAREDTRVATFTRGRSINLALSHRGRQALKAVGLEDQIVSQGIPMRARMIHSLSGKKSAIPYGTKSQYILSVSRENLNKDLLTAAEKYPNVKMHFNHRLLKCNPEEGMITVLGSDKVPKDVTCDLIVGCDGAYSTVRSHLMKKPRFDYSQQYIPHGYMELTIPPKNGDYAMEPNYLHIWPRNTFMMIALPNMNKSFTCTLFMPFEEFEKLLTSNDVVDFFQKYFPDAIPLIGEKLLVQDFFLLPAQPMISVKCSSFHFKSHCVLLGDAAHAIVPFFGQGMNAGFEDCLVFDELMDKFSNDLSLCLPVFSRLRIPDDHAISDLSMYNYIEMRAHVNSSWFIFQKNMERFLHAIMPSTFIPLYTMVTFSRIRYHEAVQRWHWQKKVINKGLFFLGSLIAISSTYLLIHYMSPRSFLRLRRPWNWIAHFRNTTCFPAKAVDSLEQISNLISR
T1 sequence (O15229 whole entry): as above
T3 sequence (O88867 whole entry): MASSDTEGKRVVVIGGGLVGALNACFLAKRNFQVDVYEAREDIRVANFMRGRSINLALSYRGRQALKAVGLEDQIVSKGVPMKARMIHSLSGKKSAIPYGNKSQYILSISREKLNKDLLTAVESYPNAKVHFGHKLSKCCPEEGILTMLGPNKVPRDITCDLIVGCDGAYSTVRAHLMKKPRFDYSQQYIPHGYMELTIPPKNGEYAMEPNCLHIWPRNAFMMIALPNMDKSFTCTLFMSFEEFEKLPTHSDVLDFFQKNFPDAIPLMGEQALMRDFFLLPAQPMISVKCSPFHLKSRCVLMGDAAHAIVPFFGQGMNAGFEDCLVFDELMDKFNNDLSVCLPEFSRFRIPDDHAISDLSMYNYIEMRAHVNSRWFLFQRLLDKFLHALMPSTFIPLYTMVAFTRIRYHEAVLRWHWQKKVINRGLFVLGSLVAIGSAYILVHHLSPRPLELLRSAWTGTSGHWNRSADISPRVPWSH
T4 sequence (O88867 whole entry): as above

## Cc1cnn(-c2cccc(C(=O)O)c2)c1-c1ccccc1 [Compound 1]
[1]; HEK293, conc 0.1 μM, duplicates, read-out: inhibition rate, Hs-KMO cellular assay (Figure 1C source data)
  inhibition at 0.1 µM: 17%
[1]; HEK293, conc 0.3 μM, duplicates, read-out: inhibition rate, Hs-KMO cellular assay (Figure 1C source data)
  inhibition at 0.3 µM: 33.6%
[1]; HEK293, conc 1 μM, duplicates, read-out: inhibition rate, Hs-KMO cellular assay (Figure 1C source data)
  inhibition at 1 µM: 60.2%
[1]; HEK293, conc 3 μM, duplicates, read-out: inhibition rate, Hs-KMO cellular assay (Figure 1C source data)
  inhibition at 3 µM: 88.1%
[1]; HEK293, conc 10 μM, duplicates, read-out: inhibition rate, Hs-KMO cellular assay (Figure 1C source data)
  inhibition at 10 µM: 100%
[1]; HEK293, conc 30 μM, duplicates, read-out: inhibition rate, Hs-KMO cellular assay (Figure 1C source data)
  inhibition at 30 µM: 104%
[1]; HEK293 cells expressing human KMO, LC/MS, read-out: Human cell-based assay IC50
  IC50: 580 nM
[1]; conc 0.03 μM, duplicates
  inhibition rate, Hs-KMO cellular assay (Figure 1C source data): 1.868% and 10.412%
[1]; conc 0.1 μM, duplicates
  inhibition rate, Hs-KMO cellular assay (Figure 1C source data): 14.953%
[1]; conc 0.3 μM, duplicates
  inhibition rate, Hs-KMO cellular assay (Figure 1C source data): 36.860%
[1]; conc 1 μM, duplicates
  inhibition rate, Hs-KMO cellular assay (Figure 1C source data): 55.900%
[1]; conc 3 μM, duplicates
  inhibition rate, Hs-KMO cellular assay (Figure 1C source data): 85.656%
[1]; conc 10 μM, duplicates
  inhibition rate, Hs-KMO cellular assay (Figure 1C source data): 99.963%
[1]; conc 30 μM, duplicates
  inhibition rate, Hs-KMO cellular assay (Figure 1C source data): 103.556%
hKMO; cell-free enzyme assay, high kynurenine, read-out: Human KMO IC50
  IC50: 160 nM
hKMO; conc 0.03 μM, duplicates
  inhibition rate, Hs-KMO cell-free assay (Figure 1A source data): 13.527%
hKMO; conc 0.03 μM, duplicates, read-out: inhibition rate, Hs-KMO cell-free assay (Figure 1A source data)
  inhibition at 0.03 µM: 15.1%
hKMO; conc 0.1 μM, duplicates
  inhibition rate, Hs-KMO cell-free assay (Figure 1A source data): 37.639%
hKMO; conc 0.1 μM, duplicates, read-out: inhibition rate, Hs-KMO cell-free assay (Figure 1A source data)
  inhibition at 0.1 µM: 41.4%
hKMO; conc 0.3 μM, duplicates
  inhibition rate, Hs-KMO cell-free assay (Figure 1A source data): 65.813%
hKMO; conc 0.3 μM, duplicates, read-out: inhibition rate, Hs-KMO cell-free assay (Figure 1A source data)
  inhibition at 0.3 µM: 66.6%
hKMO; conc 1 μM, duplicates
  inhibition rate, Hs-KMO cell-free assay (Figure 1A source data): 77.715%
hKMO; conc 1 μM, duplicates, read-out: inhibition rate, Hs-KMO cell-free assay (Figure 1A source data)
  inhibition at 1 µM: 82.9%
hKMO; conc 3 μM, duplicates
  inhibition rate, Hs-KMO cell-free assay (Figure 1A source data): 95.862%
hKMO; conc 3 μM, duplicates, read-out: inhibition rate, Hs-KMO cell-free assay (Figure 1A source data)
  inhibition at 3 µM: 99.1%
hKMO; conc 10 μM, duplicates
  inhibition rate, Hs-KMO cell-free assay (Figure 1A source data): 92.894%
hKMO; conc 10 μM, duplicates, read-out: inhibition rate, Hs-KMO cell-free assay (Figure 1A source data)
  inhibition at 10 µM: 97.2%
hKMO; conc 30 μM, duplicates
  inhibition rate, Hs-KMO cell-free assay (Figure 1A source data): 103.928%
hKMO; conc 30 μM, duplicates, read-out: inhibition rate, Hs-KMO cell-free assay (Figure 1A source data)
  inhibition at 30 µM: 104%
hKMO; conc 100 μM, duplicates
  inhibition rate, Hs-KMO cell-free assay (Figure 1A source data): 96.422%
hKMO; conc 100 μM, duplicates, read-out: inhibition rate, Hs-KMO cell-free assay (Figure 1A source data)
  inhibition at 100 µM: 100%
Rat KMO; cell-free enzyme assay, high kynurenine
  IC50: 570 nM
Rat KMO; conc 0.03 μM, duplicates
  inhibition rate, Rat-KMO cell-free assay (Figure 1B source data): 4.679% and 12.234%
Rat KMO; conc 0.1 μM, duplicates
  inhibition rate, Rat-KMO cell-free assay (Figure 1B source data): 19.657%
Rat KMO; conc 0.1 μM, duplicates, read-out: inhibition rate, Rat-KMO cell-free assay (Figure 1B source data)
  inhibition at 0.1 µM: 16%
Rat KMO; conc 0.3 μM, duplicates
  inhibition rate, Rat-KMO cell-free assay (Figure 1B source data): 35.882%
Rat KMO; conc 0.3 μM, duplicates, read-out: inhibition rate, Rat-KMO cell-free assay (Figure 1B source data)
  inhibition at 0.3 µM: 39.2%
Rat KMO; conc 1 μM, duplicates
  inhibition rate, Rat-KMO cell-free assay (Figure 1B source data): 64.963%
Rat KMO; conc 1 μM, duplicates, read-out: inhibition rate, Rat-KMO cell-free assay (Figure 1B source data)
  inhibition at 1 µM: 63.5%
Rat KMO; conc 3 μM, duplicates
  inhibition rate, Rat-KMO cell-free assay (Figure 1B source data): 78.325%
Rat KMO; conc 3 μM, duplicates, read-out: inhibition rate, Rat-KMO cell-free assay (Figure 1B source data)
  inhibition at 3 µM: 81.5%
Rat KMO; conc 10 μM, duplicates
  inhibition rate, Rat-KMO cell-free assay (Figure 1B source data): 86.225%
Rat KMO; conc 10 μM, duplicates, read-out: inhibition rate, Rat-KMO cell-free assay (Figure 1B source data)
  inhibition at 10 µM: 85.2%
Rat KMO; conc 30 μM, duplicates
  inhibition rate, Rat-KMO cell-free assay (Figure 1B source data): 94.681%
Rat KMO; conc 30 μM, duplicates, read-out: inhibition rate, Rat-KMO cell-free assay (Figure 1B source data)
  inhibition at 30 µM: 95.7%
Rat KMO; conc 100 μM, duplicates
  inhibition rate, Rat-KMO cell-free assay (Figure 1B source data): 91.129%
Rat KMO; conc 100 μM, duplicates, read-out: inhibition rate, Rat-KMO cell-free assay (Figure 1B source data)
  inhibition at 100 µM: 88.8%
[2]; HEK293, conc 0.03 μM, duplicates, read-out: inhibition rate, Rat-KMO cellular assay (Figure 1D source data)
  inhibition at 0.03 µM: 4.96%
[2]; HEK293, conc 0.1 μM, duplicates, read-out: inhibition rate, Rat-KMO cellular assay (Figure 1D source data)
  inhibition at 0.1 µM: 0.969%
[2]; HEK293, conc 0.3 μM, duplicates, read-out: inhibition rate, Rat-KMO cellular assay (Figure 1D source data)
  inhibition at 0.3 µM: 4.27%
[2]; HEK293, conc 3 μM, duplicates, read-out: inhibition rate, Rat-KMO cellular assay (Figure 1D source data)
  inhibition at 3 µM: 20.1%
[2]; HEK293, conc 10 μM, duplicates, read-out: inhibition rate, Rat-KMO cellular assay (Figure 1D source data)
  inhibition at 10 µM: 58.4%
[2]; HEK293, conc 30 μM, duplicates, read-out: inhibition rate, Rat-KMO cellular assay (Figure 1D source data)
  inhibition at 30 µM: 87.7%
[2]; HEK293 cells expressing rat KMO, LC/MS
  IC50: 7300 nM
[2]; conc 0.03 μM, duplicates
  inhibition rate, Rat-KMO cellular assay (Figure 1D source data): 3.155%
[2]; conc 0.1 μM, duplicates
  inhibition rate, Rat-KMO cellular assay (Figure 1D source data): 1.853%
[2]; conc 0.3 μM, duplicates
  inhibition rate, Rat-KMO cellular assay (Figure 1D source data): 6.904%
[2]; conc 3 μM, duplicates
  inhibition rate, Rat-KMO cellular assay (Figure 1D source data): 21.339%
[2]; conc 10 μM, duplicates
  inhibition rate, Rat-KMO cellular assay (Figure 1D source data): 59.197%
[2]; conc 30 μM, duplicates
  inhibition rate, Rat-KMO cellular assay (Figure 1D source data): 87.499%
